The subject of one assay is Streptococcus. The assay is described as follows: GAS UMAA2166 growth inhibition – luminescence, BacTiterGlo, counter-screen for streptokinase expression inhibitor project, dose response (AID 1915).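 Note: potency for reduction of bacterial viability or growth.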 The format is functional, organism-based.
The nature of assay [1]: A549 cell cytotoxicity, dose response, cytotoxicity control, plate reader, cherry-pick, antagonist series (AID 743412). The class given is functional, cell-based.
The nature of assay [2]: Luminescence-based counterscreen assay for KLF5 inhibitors: dose response cell-based high throughput screening assay to identify cytotoxic compounds using the IEC-6 intestinal epithelial cell line. [Related pubchem assays: 1700 (Primary screen.), 1834 (Confirmation screen.), 1858 (Summary AID.), 1905 (Counterscreen.)]. The format is functional. A general note: The purpose of a counterscreen is to sort out artefacts and off-target activity.

A further assay addresses T1, Streptokinase A (Streptococcus pyogenes serotype M1, UniProt P10520).
T1 sequence (P10520 whole entry): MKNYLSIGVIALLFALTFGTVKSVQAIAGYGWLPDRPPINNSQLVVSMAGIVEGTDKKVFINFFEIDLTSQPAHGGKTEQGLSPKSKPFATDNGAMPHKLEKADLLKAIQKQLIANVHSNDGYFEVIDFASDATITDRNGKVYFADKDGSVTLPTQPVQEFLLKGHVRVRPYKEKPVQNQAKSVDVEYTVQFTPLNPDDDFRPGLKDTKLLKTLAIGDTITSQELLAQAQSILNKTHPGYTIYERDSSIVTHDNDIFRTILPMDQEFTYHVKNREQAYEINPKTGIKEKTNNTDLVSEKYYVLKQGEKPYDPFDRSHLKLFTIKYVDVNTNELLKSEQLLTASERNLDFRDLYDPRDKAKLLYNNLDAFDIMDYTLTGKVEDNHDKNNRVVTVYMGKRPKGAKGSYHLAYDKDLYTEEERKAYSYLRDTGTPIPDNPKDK
The assay is described as follows: viability-normalized secreted streptokinase activity reduction – plasminogen activation absorbance, OD405, dose response (AID 1914).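 Note: secreted streptokinase activity via plasminogen activation per viability signal from cell pellet.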 The class given is functional, Streptococcus pyogenes M1 GAS.

The nature of assay [3]: viability loss in HEK293 cells – cell-based, plate reader, cherry-picked samples, cytotoxicity control, dose response (AID 743446). The class given is functional.
Assay [4] is described as follows: toxicity toward HepG2 liver cells – cell-based, plate reader, cherry-pick, antagonist series, cytotoxicity control, dose response (AID 743416). The class given is functional.
Assay [5] in a line: blockers of bursicon-stimulated LGR2 cAMP reporter – cell-based, HEK293, CRE-luciferase reporter, cherry pick, set 2, dose response (AID 743343).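 Note: transfected cells were stimulated with diluted bursicon conditioned medium after compound addition.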 The format is functional. (In a reporter assay the amount or activity of a reporter protein is the signal.)
Assay [6] deals with Streptococcus sp. 'group A'. The assay is described as follows: Streptococcus pyogenes SK(-)GAS viability under kanamycin – luminescence, BacTiterGlo, confirmation, counter-screen for streptokinase expression inhibitor project, dose response (AID 1900). The format is functional, organism-based.
Assay [7] is described as follows: blockade of melanocortin 4 receptor signaling – cell-based, plate reader, cherry pick, counter-screen for LGR2 antagonist project, dose response (AID 743444).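 Note: transfected HEK 293 cells stimulated with alpha-MSH peptide; potency of inhibitors of the alpha-MSH evoked signal.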 The format is functional.
Assay [8] has as its target Disintegrin and metalloproteinase domain-containing protein 17 (Homo sapiens, UniProt P78536). The assay is described as follows: exosite inhibitors of ADAM17, dose response, biochemical (AID 743260).
Assay [9] can be described thus: inhibition of ADAM10 peptide cleavage – biochemical, FRET peptide substrate, recombinant human ADAM10, selectivity assay for ADAM17 exosite inhibitor project, dose response (AID 743259).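 Note: ADAM10 enzyme cleaving a FRET peptide substrate.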
Assay [10] is described as follows: microbe, parasite or virus in culture. The format is functional. As to conditions: Mycobacterium tuberculosis.
Assay [11] is described as follows: Trypanosoma cruzi growth suppression in host cells – NIH3T3 host cells, beta-gal luminescence, confirmation (AID 2044).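 Note: intracellular parasites grown in NIH/3T3 mouse fibroblasts as host cells; luminescent beta-galactosidase reporter signal from transgenic T. cruzi replicating inside host cells; inhibitors lower the luminescence signal.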 The class given is functional, cell-based.
A further assay has as its system INS1. As to the kind of experiment: INS-1E survival protection against cytokine death – cell-based, luminescence, retest, dose response (AID 449756).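 Note: cell death triggered by IL-1 beta plus TNF-alpha plus IFN-gamma mixture; protective hits raise ATP signal compared with cytokine alone wells.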 The format is functional. As to conditions: Rattus norvegicus.
Assay [12] can be described thus: NIH3T3 cell viability loss – ATP luminescence, mouse fibroblasts, counter-screen, dose response (AID 2010).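 Note: cells exposed to compound for about 90 hours before reading.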 The class given is functional, cell-based.
Assay [13] has as its target Protein-tyrosine kinase 2-beta (Homo sapiens, UniProt Q14289).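 Note: potency of inhibitors of PYK2 kinase phosphorylation of poly-GT substrate.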
Assay [14] addresses Luciferin 4-monooxygenase (Photinus pyralis, UniProt P08659). The assay is described as follows: inhibition of purified Photinus pyralis luciferase – biochemical, luminescence, dose response (AID 1891).
Assay [15] is described as follows: Luminescence Cell-Based Dose Confirmation HTS to Identify Inhibitors of Platelet Dense Granule Release. [Related pubchem assays: 1663 (Primary HTS), 1678 (Summary of Project)]. The format is functional.
Assay [16] in a line: Luminescence Cell-Based Dose Response to Identify Activators of Luciferase Translation or Activity in H4-C Neuroglioblastoma Cells. [Related pubchem assays: 1829 (Project Summary), 1814 (Primary HTS)]. The format is functional.
The nature of assay [17]: Luminescence Cell-Based Dose Confirmation HTS to Identify Activators of 5'UTR Stem-Loop Driven Alpha-Synuclein mRNA Translation in H4 Neuroglioblastoma Cells. [Related pubchem assays: 1829 (Project Summary), 1814 (Primary HTS)]. The class given is functional.
Assay [18] is described as follows: Luminescence Cell-Based Dose Response to Identify Activators of 5'UTR Stem-Loop Driven Prion Protein mRNA Translation in H4-C Neuroglioblastoma Cells. [Related pubchem assays: 1829 (Project Summary), 1814 (Primary HTS)]. The class given is functional.
The subject of another assay is H4. The assay is described as follows: Luminescence Cell-Based Dose Response HTS to Identify Activators of 5'UTR Stem-Loop Driven Prion Protein mRNA Translation in H4 Neuroglioblastoma Cells. [Related pubchem assays: 1829 (Project Summary), 1814 (Primary HTS)]. The format is functional. As to conditions: Homo sapiens.
The nature of assay [19]: Luminescence Cell-Based Dose Confirmation to Identify Activators of 5'UTR Stem-Loop Driven Alpha-Synuclein mRNA Translation in H4 Neuroglioblastoma Cells. [Related pubchem assays: 1829 (Project Summary), 1814 (Primary HTS)]. The format is functional.
Assay [20] in a line: Luminescence Cell-Based Dose Response HTS to Identify Activators of Luciferase Translation or Activity in H4 […] Cells. [Related pubchem assays: 1829 (Project Summary), 1814 (Primary HTS)]. The format is functional.
Assay [21] can be described thus: HEK293 Cytotoxicity Assay Measured in Cell-Based System Using Plate Reader - 7071-01_Inhibitor_Dose_CherryPick_Activity_Set2. The format is functional.
Assay [22] can be described thus: viability loss in THP-1 monocytes – THP-1 cells, cytotoxicity control for Vif-APOBEC3G degradation inhibitor project, dose response (AID 1117359). The format is functional. As to conditions: THP-1.
In another assay the test system is HEK293. The assay is described as follows: viability loss in HEK293T cells – cell-based, ATP luminescence, cherry-pick samples, cytotoxicity control, dose response (AID 687005).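 Note: cells exposed to compound for 48 hours.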 The class given is functional. As to conditions: Homo sapiens.
Assay [23] is described as follows: HPDE-C7 pancreatic duct cell viability loss – fluorescence, HTS (AID 430). The format is functional, cell-based. As to conditions: Homo sapiens.
The nature of assay [24]: viability loss of HPDE-C7K cells – cell-based, fluorescence, HTS, primary screen (AID 431). The class given is functional. As to conditions: Homo sapiens.
Assay [25] addresses Sphingosine 1-phosphate receptor 2 (Homo sapiens, UniProt O95136). The assay is described as follows: Dose Response Cell Based Assay for Antagonists of the S1P2 Receptor. [Related pubchem assays: 856, 736 ]. The class given is functional.
Assay [26] in a line: HIV-1 Vif–A3G interaction blockers – biochemical, TR-FRET, GST-Vif 1-94, biotin-A3G peptide, dose response retest, primary screen (AID 1117319).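 Note: TR-FRET signal of purified GST-Vif binding a biotinylated A3G peptide; inhibitors lower the FRET signal by blocking Vif and A3G binding.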 The format is functional.

The text below walks through data of ChEMBL document CHEMBL1201862, “PubChem BioAssay data set” (2004).

SMILES strings stand for the structures. Calls of active or inactive are those of the source.

Chain of Luciferin 4-monooxygenase (P08659 whole entry): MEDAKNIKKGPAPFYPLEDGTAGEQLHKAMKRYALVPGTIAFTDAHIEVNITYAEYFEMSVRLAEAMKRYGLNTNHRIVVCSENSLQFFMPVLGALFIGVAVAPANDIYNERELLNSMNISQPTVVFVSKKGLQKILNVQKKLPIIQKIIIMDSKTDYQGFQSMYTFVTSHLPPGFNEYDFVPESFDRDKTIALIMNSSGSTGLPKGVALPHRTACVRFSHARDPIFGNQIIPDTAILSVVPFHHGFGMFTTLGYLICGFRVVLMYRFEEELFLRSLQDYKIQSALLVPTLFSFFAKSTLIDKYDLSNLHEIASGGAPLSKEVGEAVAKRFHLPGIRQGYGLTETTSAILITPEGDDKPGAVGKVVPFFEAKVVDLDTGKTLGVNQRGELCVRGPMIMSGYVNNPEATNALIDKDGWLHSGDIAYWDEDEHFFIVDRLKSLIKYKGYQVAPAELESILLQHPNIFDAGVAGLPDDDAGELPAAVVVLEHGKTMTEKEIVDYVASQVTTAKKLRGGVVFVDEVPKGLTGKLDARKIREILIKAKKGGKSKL
Chain of Protein-tyrosine kinase 2-beta (Q14289 whole entry): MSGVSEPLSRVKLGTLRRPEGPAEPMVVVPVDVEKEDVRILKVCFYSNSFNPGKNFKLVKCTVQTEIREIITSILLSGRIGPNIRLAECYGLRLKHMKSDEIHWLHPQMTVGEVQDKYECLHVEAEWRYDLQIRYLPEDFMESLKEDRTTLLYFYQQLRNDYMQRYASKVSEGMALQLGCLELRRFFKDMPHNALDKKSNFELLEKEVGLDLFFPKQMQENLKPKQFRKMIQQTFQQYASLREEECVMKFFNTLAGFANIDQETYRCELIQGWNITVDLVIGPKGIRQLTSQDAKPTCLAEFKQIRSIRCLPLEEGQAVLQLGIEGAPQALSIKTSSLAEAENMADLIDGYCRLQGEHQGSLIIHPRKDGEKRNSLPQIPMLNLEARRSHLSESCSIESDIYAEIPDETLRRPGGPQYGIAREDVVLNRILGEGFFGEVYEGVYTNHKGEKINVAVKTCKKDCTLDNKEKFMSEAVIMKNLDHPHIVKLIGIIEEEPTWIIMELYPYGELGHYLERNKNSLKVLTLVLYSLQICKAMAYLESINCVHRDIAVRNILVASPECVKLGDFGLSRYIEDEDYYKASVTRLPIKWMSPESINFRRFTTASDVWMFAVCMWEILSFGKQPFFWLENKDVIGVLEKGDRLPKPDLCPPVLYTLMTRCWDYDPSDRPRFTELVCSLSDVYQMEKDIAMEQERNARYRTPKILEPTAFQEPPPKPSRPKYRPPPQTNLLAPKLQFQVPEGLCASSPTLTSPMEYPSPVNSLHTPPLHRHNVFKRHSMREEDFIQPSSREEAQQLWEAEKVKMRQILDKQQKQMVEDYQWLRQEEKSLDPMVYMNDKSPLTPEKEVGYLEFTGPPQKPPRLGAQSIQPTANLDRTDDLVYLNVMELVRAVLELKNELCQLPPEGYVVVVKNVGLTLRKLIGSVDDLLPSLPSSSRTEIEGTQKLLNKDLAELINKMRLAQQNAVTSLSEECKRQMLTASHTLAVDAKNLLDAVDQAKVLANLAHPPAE
Chain of Disintegrin and metalloproteinase domain-containing protein 17 (P78536 whole entry, the tested form may be a part): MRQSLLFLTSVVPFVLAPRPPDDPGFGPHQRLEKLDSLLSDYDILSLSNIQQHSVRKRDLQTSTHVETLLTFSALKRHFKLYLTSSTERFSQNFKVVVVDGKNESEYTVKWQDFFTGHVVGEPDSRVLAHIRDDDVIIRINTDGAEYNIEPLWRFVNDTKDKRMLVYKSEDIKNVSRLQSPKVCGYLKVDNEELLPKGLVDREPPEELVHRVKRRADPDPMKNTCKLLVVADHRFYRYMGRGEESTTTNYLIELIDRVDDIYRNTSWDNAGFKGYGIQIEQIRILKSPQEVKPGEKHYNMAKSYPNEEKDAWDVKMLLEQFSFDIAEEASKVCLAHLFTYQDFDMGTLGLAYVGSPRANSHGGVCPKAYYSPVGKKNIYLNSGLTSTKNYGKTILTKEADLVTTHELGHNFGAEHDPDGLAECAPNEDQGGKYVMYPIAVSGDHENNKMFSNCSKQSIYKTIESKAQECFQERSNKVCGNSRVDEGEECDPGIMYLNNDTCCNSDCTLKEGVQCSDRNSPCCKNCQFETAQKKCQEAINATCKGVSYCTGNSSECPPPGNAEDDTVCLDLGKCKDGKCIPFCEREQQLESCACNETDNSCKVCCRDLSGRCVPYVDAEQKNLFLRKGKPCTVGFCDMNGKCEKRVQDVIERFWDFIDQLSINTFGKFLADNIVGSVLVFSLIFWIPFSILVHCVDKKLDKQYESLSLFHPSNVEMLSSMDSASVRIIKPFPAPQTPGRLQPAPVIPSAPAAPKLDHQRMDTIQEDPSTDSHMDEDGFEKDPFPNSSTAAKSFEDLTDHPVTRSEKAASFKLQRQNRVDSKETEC
Chain of Sphingosine 1-phosphate receptor 2 (O95136 whole entry): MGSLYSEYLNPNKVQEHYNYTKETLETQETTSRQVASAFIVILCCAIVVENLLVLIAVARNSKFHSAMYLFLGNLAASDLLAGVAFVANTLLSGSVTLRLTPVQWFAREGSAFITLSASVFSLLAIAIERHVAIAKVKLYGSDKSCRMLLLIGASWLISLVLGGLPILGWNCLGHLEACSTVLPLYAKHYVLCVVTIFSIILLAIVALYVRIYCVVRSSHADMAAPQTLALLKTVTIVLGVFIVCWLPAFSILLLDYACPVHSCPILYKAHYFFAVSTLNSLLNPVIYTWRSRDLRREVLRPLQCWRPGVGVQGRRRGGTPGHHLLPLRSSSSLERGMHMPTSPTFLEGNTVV

The EC50 is the midpoint of the concentration-response curve. For orientation: AC50 means the concentration giving half of the maximal activity seen. By IC50 is commonly meant the concentration that gives 50% inhibition. As for `CC(C)Oc1ccc(C(=O)Nc2nc3ccccc3[nH]2)cc1`, the results for the EC50 (with Streptococcus; at Streptokinase A; in assay [6]) were 28.6 µM (active), > 150 µM (not active) and 3.4 µM (active), respectively. Besides, the AC50 in assay [1] is 18.8 µM (active); in assay [3], 16.2 µM (active); in assay [4], 15.1 µM (active); in assay [5], 1.2 µM (active); in assay [7], 2.16 µM (active). Besides, the IC50 in [2] is listed as 17.8 µM (not active).

`Cc1nc2ccc(NC(=O)c3ccc(S(=O)(=O)N(C)c4ccccc4)cc3)cc2s1`: the IC50 in [8] and in assay [9] was > 69.5 µM (inactive) each time.

For the compound `COc1ccc(-c2cc3ccccc3oc2=O)cc1NC(=O)c1ccc([N+](=O)[O-])o1`, the CC50 in assay [10] is > 40 µM (active). For the same compound, the EC50 in [11] is < 0.1 µM (active); in “cells” it was 0.262 µM (active); in assay [12] it was 9.47 µM (active). The AC50 with INS1 was 10.7 µM (active).

For `CN1C(=O)/C(=C/c2cn(CC(=O)N3CCCCC3)c3ccccc23)c2ccccc21`, the IC50 in [13] is on record as 46.6 µM (not active). The EC50 in assay [14] and in [15] was > 112 µM (not active) in each case.

Turning to `c1ccc2c(c1)Cn1nc(Cc3nc4c(s3)CCCC4)nc1-2`, the EC50 in assay [16] was > 12 µM (not active); in [17], < 0.1 µM (active); in assay [18] it was > 12 µM (not active); in the assay on H4 it was 10.3 µM (active); in assay [19], > 3.8 µM (not active); in assay [20] it was 7.06 µM (active).

As to `Cc1ccc(N(CC(=O)NCCSCc2ccco2)S(=O)(=O)c2ccc(F)cc2)cc1`, the AC50 (in [21]; in the assay on HEK293) was 31.9 µM (active) each time. In addition, in [22], the CC50 was > 40 µM (active).

As to `Cc1ccc2nc(C(F)(F)F)c(C#N)c(N)c2c1`, the results for the EC50 in [23] and in assay [24] were > 20 µM (not active) and 7.2 µM (active), respectively. Also, the AC50 in assay [1] is 24.2 µM (active); in [3] it was > 52 µM (inactive); in assay [4] it was 16 µM (active); in assay [5] it was 22.9 µM (active).

`COC(=O)c1sc2cc(C(F)(F)F)cnc2c1-c1ccccn1`: the IC50 in assay [25] is given as > 30 µM (not active).

As for `COC(=O)c1ccc(-n2nnnc2SCC(=O)Nc2cc(OC)ccc2OC)cc1`, the IC50 in assay [26] is > 100 µM (active).
